Source: US20020058299A1, “Mycologic genera specific selective agar and method of manufacture” (priority 2000, published 2002)

System: aggressive fungi
Assay: Empirical trials of Minimum Inhibitory Concentration levels that suppress aggressive fungi without restricting Stachybotrys
Assay type: cell-based
Details: added to PDA base media
Procedure: In order to be successful in culturing Stachybotrys from environmental samples, Aspergillus flavus, Aspergillus fumigatus, Aspergillus vervicolor, Cladosporium species, Penicillium species, in addition to other fungi and bacteria, need to be suppressed. While conceptually simple, the difficulty is to determine which base media, in combination with which one or more antibiotics, at what concentrations, incubated at what temperature regimes, for how long, would achieve inhibition of competitors—without restricting Stachybotrys. Extensive experimental trials empirically determined the Minimum Inhibitory Concentration (MIC) levels of various compounds that would effectively suppress aggressive fungi without restricting Stachybotrys development. Through this empirical effort there has been developed a proprietary formula for a selective agar (PDA+) based on commercially available base media and additional ingredients for the specific recovery of Stachybotrys chartarum.
(2) Miconazole (antifungal compound added to base media at 1.6 micrograms (μg) per milliliter (ml) of PDA+, the optimum concentration within the functional range of 1.0 to 3.2 μg/ml).

Clc1ccc(COC(Cn2ccnc2)c2ccc(Cl)cc2Cl)c(Cl)c1 (stereo not shown) [Miconazole]
optimum concentration in PDA+: 1.6 micrograms (μg) per milliliter (ml)
